Measured values published in patent publication US20100297194A1, “FORMULATION FOR ORAL ADMINISTRATION OF APOPTOSIS PROMOTER” (priority 2009, published 2010).
Counter-ions that a name gives are not always drawn.

Columns and labels:
Format in all cases: physicochemical
[1] = solubility in lipid solvents (Example 1); conditions: ambient conditions, listed as ABT-263 bis-HCl salt;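 further: solubility in mg/g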
Experimental: Solubility of ABT-263 parent (free base, crystalline Form I) and ABT-263 bis-HCl salt was tested in a variety of lipid solvents and solvent mixtures in ambient conditions. “PE-91” is Phosal 53 MCT™+ethanol, 9:1 by volume. “LOT-343” is Labrafil M 1944 CS™+oleic acid+Tween 80™, 30:40:30 by weight.
In some cases, indicated in Table 4 by an asterisk (*), solubility was initially high but precipitation occurred upon standing.

[2] = drug solubility in ternary excipient systems (Example 2); design: key: ✓: vehicle miscible, or drug fully dissolved in vehicle; conditions: 10% salt, 20% free base
Description: (§1) Solvents evaluated included Labrafil M 1944 CS™, Imwitor 742™ oleic acid, Capmul PG-8™, Capmul PG-12™, Lauroglycol 90™ and Phosal 53 MCT™. Surfactants evaluated included Tween™ 80, Cremophor RH40™, Gelucire 44/14™ and Labrasol™.

[3] = as above; design: key: ✓: vehicle miscible, or drug fully dissolved in vehicle; X: vehicle immiscible or miscible but turbid, or residual solids present (due to undissolved drug or precipitation); conditions: 10% salt, 20% free base
Description: as §1

Solubility ([1]; in Capmul MCM): >321 mg/g
Solubility ([1]; in Capmul PG-8): <43 mg/g
Solubility ([1]; in Capmul PG-12): <39 mg/g
Solubility ([1]; in Captex 300): <52 mg/g
Solubility ([1]; in Imwitor 742): >245 mg/g
Solubility ([1]; in Labrafil M 1944 CS): <45 mg/g
Solubility ([1]; in Labrafil M 2125 CS): <44 mg/g
Solubility ([1]; in Labrasol): >292 mg/g
Solubility ([1]; in Lipoid S75 MCT): 48.9 mg/g
Solubility ([1]; in Miglyol 810): <84 mg/g
Solubility ([1]; in PE-91 (Phosal 53 MCT+ethanol 9:1 by volume)): 89 mg/g
Solubility ([1]; in PEG-400): >278 mg/g
Solubility ([1]; in Tween 20): >176 mg/g
Solubility ([1]; in Tween 80): >125 mg/g
Solubility ([1]; in castor oil): >78.8 mg/g
Solubility ([1]; in corn oil): <104 mg/g
Solubility ([1]; in oleic acid): <498 mg/g
Solubility ([1]; in poloxamer 124): <41 mg/g
Solubility ([1]; in propylene glycol): >337 mg/g
Solubility ([1]; in sesame oil): <80 mg/g
ABT-263 solubility ([2]; C8LL (Capmul PG-8/Labrafil M 1944 CS/Labrasol) 40:40:20 by weight): ✓
ABT-263 solubility ([2]; C12LT (Capmul PG-12/Labrafil M 1944 CS/Tween 80) 30:40:30 by weight): ✓
ABT-263 solubility ([2]; C12LT (Capmul PG-12/Labrafil M 1944 CS/Tween 80) 35:40:25 by weight): ✓
ABT-263 solubility ([2]; C12LT (Capmul PG-12/Labrafil M 1944 CS/Tween 80) 40:30:30 by weight): ✓
ABT-263 solubility ([2]; C12LT (Capmul PG-12/Labrafil M 1944 CS/Tween 80) 45:30:25 by weight): ✓
ABT-263 solubility ([2]; ILC (Imwitor 742/Labrafil M 1944 CS/Cremophor RH40) 50:30:20 by weight, listed as ABT-263 bis-HCl salt): ✓
ABT-263 solubility ([2]; ILC (Imwitor 742/Labrafil M 1944 CS/Cremophor RH40) 50:40:10 by weight, listed as ABT-263 bis-HCl salt): ✓
ABT-263 solubility ([2]; ILC (Imwitor 742/Labrafil M 1944 CS/Cremophor RH40) 60:30:10 by weight, listed as ABT-263 bis-HCl salt): ✓
ABT-263 solubility ([2]; ILL (Imwitor 742/Labrafil M 1944 CS/Labrasol) 40:40:20 by weight, listed as ABT-263 bis-HCl salt): ✓
ABT-263 solubility ([2]; ILL (Imwitor 742/Labrafil M 1944 CS/Labrasol) 50:30:20 by weight, listed as ABT-263 bis-HCl salt): ✓
ABT-263 solubility ([2]; ILL (Imwitor 742/Labrafil M 1944 CS/Labrasol) 50:40:10 by weight, listed as ABT-263 bis-HCl salt): ✓
ABT-263 solubility ([2]; ILL (Imwitor 742/Labrafil M 1944 CS/Labrasol) 60:30:10 by weight, listed as ABT-263 bis-HCl salt): ✓
ABT-263 solubility ([2]; LIT (Labrafil M 1944 CS/Imwitor 742/Tween 80) 30:40:30 by weight, listed as ABT-263 bis-HCl salt): ✓
ABT-263 solubility ([2]; LIT (Labrafil M 1944 CS/Imwitor 742/Tween 80) 40:30:30 by weight, listed as ABT-263 bis-HCl salt): ✓
ABT-263 solubility ([2]; LLL (Lauroglycol 90/Labrafil M 1944 CS/Labrasol) 40:40:20 by weight): ✓
ABT-263 solubility ([2]; LLL (Lauroglycol 90/Labrafil M 1944 CS/Labrasol) 50:30:20 by weight): ✓
ABT-263 solubility ([2]; LLL (Lauroglycol 90/Labrafil M 1944 CS/Labrasol) 50:40:10 by weight, listed as ABT-263 bis-HCl salt): ✓
ABT-263 solubility ([2]; LLL (Lauroglycol 90/Labrafil M 1944 CS/Labrasol) 60:30:10 by weight, listed as ABT-263 bis-HCl salt): ✓
ABT-263 solubility ([2]; LOT (Labrafil M 1944 CS/oleic acid/Tween 80) 30:40:30 by weight): ✓
ABT-263 solubility ([2]; LOT (Labrafil M 1944 CS/oleic acid/Tween 80) 30:45:25 by weight): ✓
ABT-263 solubility ([2]; LOT (Labrafil M 1944 CS/oleic acid/Tween 80) 40:30:30 by weight): ✓
ABT-263 solubility ([2]; LOT (Labrafil M 1944 CS/oleic acid/Tween 80) 40:35:25 by weight): ✓
ABT-263 solubility ([2]; OLL (oleic acid/Labrafil M 1944 CS/Labrasol) 40:40:20 by weight): ✓
ABT-263 solubility ([2]; OLL (oleic acid/Labrafil M 1944 CS/Labrasol) 50:30:20 by weight): ✓
ABT-263 solubility ([2]; OLL (oleic acid/Labrafil M 1944 CS/Labrasol) 50:40:10 by weight): ✓
ABT-263 solubility ([2]; OLL (oleic acid/Labrafil M 1944 CS/Labrasol) 60:30:10 by weight): ✓
ABT-263 solubility ([3]; C8LL (Capmul PG-8/Labrafil M 1944 CS/Labrasol) 50:30:20 by weight): X
ABT-263 solubility ([3]; C8LL (Capmul PG-8/Labrafil M 1944 CS/Labrasol) 50:40:10 by weight): X
ABT-263 solubility ([3]; C8LL (Capmul PG-8/Labrafil M 1944 CS/Labrasol) 60:30:10 by weight): X
ABT-263 solubility ([3]; C8LT (Capmul PG-8/Labrafil M 1944 CS/Tween 80) 30:40:30 by weight): X
ABT-263 solubility ([3]; C8LT (Capmul PG-8/Labrafil M 1944 CS/Tween 80) 35:40:25 by weight): X
ABT-263 solubility ([3]; C8LT (Capmul PG-8/Labrafil M 1944 CS/Tween 80) 40:30:30 by weight): X
ABT-263 solubility ([3]; C8LT (Capmul PG-8/Labrafil M 1944 CS/Tween 80) 45:30:25 by weight): X
Compound: CC1(C)CCC(c2ccc(Cl)cc2)=C(CN2CCN(c3ccc(C(=O)NS(=O)(=O)c4ccc(N[C@H](CCN5CCOCC5)CSc5ccccc5)c(S(=O)(=O)C(F)(F)F)c4)cc3)CC2)C1 [ABT-263 bis-HCl]
